Data on 42 compounds can be found in ChEMBL document CHEMBL3751755, “Developing steroidal aromatase inhibitors-an effective armament to win the battle against breast cancer” (Eur J Med Chem, 2015).

Data set [1] addresses T1, Aromatase (Homo sapiens, UniProt P11511).
T1 sequence (P11511 whole entry): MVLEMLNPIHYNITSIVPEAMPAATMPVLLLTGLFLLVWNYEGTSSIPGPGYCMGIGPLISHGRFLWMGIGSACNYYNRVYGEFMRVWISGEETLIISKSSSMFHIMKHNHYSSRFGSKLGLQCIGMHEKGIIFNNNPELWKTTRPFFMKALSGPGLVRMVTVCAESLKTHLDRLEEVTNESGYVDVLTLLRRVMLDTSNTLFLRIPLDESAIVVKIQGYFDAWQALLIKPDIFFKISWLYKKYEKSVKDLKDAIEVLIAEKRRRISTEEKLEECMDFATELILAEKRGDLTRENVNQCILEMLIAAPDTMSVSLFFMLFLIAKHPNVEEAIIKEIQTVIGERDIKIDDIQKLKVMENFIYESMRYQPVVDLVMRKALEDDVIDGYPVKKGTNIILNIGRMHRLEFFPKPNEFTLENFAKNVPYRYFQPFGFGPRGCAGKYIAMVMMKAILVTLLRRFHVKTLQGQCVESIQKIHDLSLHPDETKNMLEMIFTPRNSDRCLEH
Kind of data set: Competitive inhibition of human aromatase extracted from placental microsomes after 10 mins by Lineweaver- Burk plots analysis in presence of [1beta-3H]androstenedione.

Data set [2] has as its target T1, Aromatase. Put plainly: Inhibition of human aromatase after 30 mins by fluorescence assay.
For data set [3], the target named is T1, Aromatase. Put plainly: Inhibition of human aromatase extracted from placental microsomes using 4-[14C]androstenedione as substrate at 0.25 to 1.25 uM after 15 mins.
Data set [4] deals with T1, Aromatase. Put plainly: Competitive inhibition of human aromatase extracted from placental microsomes by Dixon plot analysis in presence of [1beta-3H]androstenedione. Conditions: read-out: Ki.
Data set [5] deals with T1, Aromatase. Put plainly: Inhibition of human aromatase extracted from placental microsomes using [1beta-3H]androstenedione as substrate after 20 mins by radiometric assay.
Data set [6] concerns the target T1, Aromatase. Put plainly: Inhibition of human aromatase extracted from placental microsomes using [1beta-3H]androstenedione as substrate at 10 to 500 nM after 30 mins. Conditions: 0.5 h.
Data set [7] concerns the target T1, Aromatase. Kind of data set: Inhibition of human aromatase extracted from placental microsomes using [1beta-3H]androstenedione as substrate after 30 mins.
Data set [8] concerns the target T1, Aromatase. Kind of data set: Competitive inhibition of human aromatase extracted from placental microsomes by Dixon plot analysis in presence of [1beta-3H]AD. Conditions: read-out: Ki.
The target in data set [9] is T1, Aromatase. Put plainly: Inhibition of human aromatase extracted from placental microsomes using [1beta-3H]AD as substrate by radiometric assay.
For data set [10], the target named is T1, Aromatase. Kind of data set: Inhibition of human aromatase extracted from placental microsomes using [1,2-3H]androstenedione as substrate after 30 mins by scintillation counting analysis.
The target in data set [11] is T2, Aromatase (Rattus norvegicus, UniProt P22443).
T2 sequence (P22443 whole entry): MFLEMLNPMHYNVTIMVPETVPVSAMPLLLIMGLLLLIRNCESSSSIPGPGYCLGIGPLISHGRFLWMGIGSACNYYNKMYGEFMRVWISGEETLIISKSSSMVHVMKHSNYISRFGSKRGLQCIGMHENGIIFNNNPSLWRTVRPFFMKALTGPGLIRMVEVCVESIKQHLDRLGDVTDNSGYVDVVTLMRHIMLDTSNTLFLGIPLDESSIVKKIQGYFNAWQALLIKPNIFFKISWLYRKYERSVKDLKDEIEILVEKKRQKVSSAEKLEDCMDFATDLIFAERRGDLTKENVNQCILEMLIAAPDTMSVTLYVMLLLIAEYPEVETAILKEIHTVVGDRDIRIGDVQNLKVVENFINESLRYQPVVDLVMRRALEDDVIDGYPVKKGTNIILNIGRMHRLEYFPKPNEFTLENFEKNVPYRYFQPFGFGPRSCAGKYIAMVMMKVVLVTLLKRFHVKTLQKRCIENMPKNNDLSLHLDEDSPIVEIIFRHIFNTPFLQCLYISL
Put plainly: Inhibition of aromatase in denucleated ovarian fraction extracted from PMSG pretreated Wistar rat by using testosterone as substrate at 1 uM.

The target in data set [12] is T1, Aromatase.
Data set [13] concerns the target T1, Aromatase. Put plainly: Competitive inhibition of human aromatase extracted from placental microsomes by double reciprocal plot analysis in presence of 4-androstene-3,17-dione. To be noted: read-out: Ki(app).
The target in data set [14] is T1, Aromatase. Kind of data set: Time dependent inactivation of human aromatase extracted from placental microsomes using [1-3H]androstenedione as substrate.
For data set [15], the target named is T1, Aromatase. Put plainly: Competitive inhibition of human aromatase extracted from placental microsomes by Lineweaver- Burk plots analysis in presence of 4-androstene-3,17-dione.

Where only a bound is given, the exact number is not on record here.

Consider `C[C@]12C=CC(=O)C(Sc3ccccc3)=C1C=C[C@@H]1[C@@H]2CC[C@]2(C)C(=O)CC[C@@H]12`, for which the Ki in data set [1] was 9.8 nM.

One may read the IC50 as the concentration that gives 50% inhibition. High values mean weaker potency, low ones greater potency. In turn, `COc1ccc([C@@H]2[C@H]3C[C@H]4[C@@H]5CCC6=CC(=O)C=C[C@]6(C)[C@H]5CC[C@]4(C)C3=NN2c2ccccc2)cc1` had a half-inhibitory concentration (IC50) in [2] of 1820 nM.

In turn, `C[C@]12CC[C@H]3[C@@H](CCC4=CC(=O)CC[C@@]43CNC(=O)C(F)(F)F)[C@@H]1CCC2=O` displayed an INH in data set [3] of under 20%.

With `C[C@]12CC[C@H](OC=O)C=C1C(=O)C[C@@H]1[C@@H]2CC[C@]2(C)C(=O)CC[C@@H]12`, in data set [4], the Ki was determined as 16000 nM. The compound also showed an IC50 in [5] of 1700 nM.

As to `C[C@]12CCC(=O)c3onc(c31)C[C@@H]1[C@@H]2CC[C@]2(C)C(=O)CC[C@@H]12`, the “inhibition (INH)” value in [6] is 50%. This compound came in with an IC50 in data set [7] of 1890 nM.

In data set [3], `C[C@]12CC[C@H]3[C@@H](CCC4=CC(=O)CC[C@@]43N=C=O)[C@@H]1CCC2=O` came in with an INH of under 20%.

Consider `C=C1C[C@@]2(C)C(=CC1=O)CC[C@@H]1[C@@H]2CC[C@]2(C)C(=O)CC[C@@H]12`, for which, in [8], the Ki was determined as 68 nM. The midpoint of inhibition in data set [9], the IC50, lay at 550 nM.

Regarding `C[C@]12CC[C@H]3[C@@H](CCC4=CC(=O)CC[C@@]43N)[C@@H]1CCC2=O`, in data set [3], the INH is given as under 20%.

In [2], `CN1N=C2[C@H](C[C@H]3[C@@H]4CCC5=CC(=O)C=C[C@]5(C)[C@H]4CC[C@]23C)[C@H]1c1ccccc1` showed a concentration for half-maximal inhibition (IC50) of 1820 nM.

Consider `C[C@]12CCC(=O)C(Sc3ccccc3)=C1C=C[C@@H]1[C@@H]2CC[C@]2(C)C(=O)CC[C@@H]12`, for which the Ki in data set [1] was 9.8 nM.

In turn, `C[C@]12CCC(=O)C(Oc3ccccc3)=C1CC[C@@H]1[C@@H]2CC[C@]2(C)C(=O)CC[C@@H]12` displayed an IC50 in [10] of 530 nM.

Regarding `C[C@]12C=CC(=O)C(Sc3ccccc3)=C1CC[C@@H]1[C@@H]2CC[C@]2(C)C(=O)CC[C@@H]12`, the Ki in [1] worked out at 9.8 nM.

Compound `C[C@]12CC[C@H]3[C@@H](CCC4=CC(=O)CC[C@@]43/C=N/O)[C@@H]1CCC2=O` registered an INH in data set [3] of under 20%.

A word on the inhibition: it is the percentage by which the read-out fell short of the control. Turning to `C[C@]12CC[C@H]3[C@@H](CCC4=C(O)C(=O)CC[C@@]43C)[C@@H]1CC(=O)OC2`, the inhibition at 1 µM in data set [11] came to 34.8%.

In [12], `C[C@]12CC[C@H]3[C@@H](CCC4=CC(=O)C=C[C@@]43C)[C@@H]1CC[C@@H]2O` returned a Ki of 260 nM.

As to `C[C@@H]1C[C@@]2(C)C(=CC1=O)CC[C@@H]1[C@@H]2CC[C@]2(C)C(=O)CC[C@@H]12`, the Ki in data set [8] worked out at 55 nM. The midpoint of inhibition in data set [9], the IC50, lay at 690 nM.

As to `C[C@]12C=CC(=O)C=C1C[C@@H](Sc1ccc3ccccc3c1)[C@@H]1[C@@H]2CC[C@]2(C)C(=O)CC[C@@H]12`, the Ki in [13] came out at 12 nM.

Consider `CC1(C)C[C@@]2(C)C(=CC1=O)CC[C@@H]1[C@@H]2CC[C@]2(C)C(=O)CC[C@@H]12`, for which, in data set [8], the Ki was 8.8 nM. Besides, in data set [9], the midpoint of inhibition, the IC50, lay at 89 nM.

Turning to `C[C@@H]1OC(=O)C[C@H]2[C@@H]3CCC4=C(O)C(=O)CC[C@]4(C)[C@H]3CC[C@]12C`, in data set [11], the inhibition at 1 µM is 23.3%.

Turning to `C[C@]12CC[C@H]3[C@@H](CCC4=CC(=O)[C@H]5COC[C@]43C5)[C@@H]1CCC2=O`, the Ki in data set [14] came to 17.6 nM.

On to `C[C@]12CC[C@H]3[C@@H](Cc4noc5c4[C@]3(C)CCC5=O)[C@@H]1CC[C@@H]2O`, for which the “inhibition (INH)” value in [6] stood at 50%. Moreover, in [7], it took 18600 nM to reach half-maximal inhibition (IC50).

For the compound `C[C@]12C=CC(=O)C=C1CC[C@@H]1[C@@H]2CC[C@]2(C)C(=O)OC[C@@H]12`, the Ki in data set [12] amounted to 260 nM.

For `C[C@]12CCC(=O)C=C1C[C@@H](Sc1cccc3ccccc13)[C@@H]1[C@@H]2CC[C@]2(C)C(=O)CC[C@@H]12`, the Ki in data set [15] is 24.1 nM.

For `C[C@]12CCC(=O)C=C1C[C@@H](Sc1ccc(Nc3ccc([N+](=O)[O-])cc3[N+](=O)[O-])cc1)[C@@H]1[C@@H]2CC[C@]2(C)C(=O)CC[C@@H]12`, the Ki in data set [15] turned out to be 24.1 nM.

On to `C[C@]12CC[C@H]3[C@@H](CCC4=CC(=O)CC[C@@]43[C@@H]3CS3)[C@@H]1CCC2=O`, for which the Ki in data set [12] was determined as 2 nM.

As for `C[C@]12CC[C@H]3[C@@H](CCC4=CC(=O)[C@H]5C[C@@H](O)[C@]43C5)[C@@H]1CCC2=O`, in data set [14], the Ki stood at 870 nM.

`C[C@@]12CCC[C@H]1[C@@H]1CCC3=CC(=O)C=C[C@]3(C)[C@H]1CC2` showed a Ki in data set [12] of 260 nM.

Regarding `COc1ccc([C@@H]2[C@H]3C[C@H]4[C@@H]5CCC6=CC(=O)C=C[C@]6(C)[C@H]5CC[C@]4(C)C3=NN2C)cc1`, the 50% inhibitory concentration (IC50) in data set [2] turned out to be 1820 nM.

As for `C[C@]12CCC(=O)C(Oc3ccccc3)=C1C[C@@H](Sc1ccccc1)[C@@H]1[C@@H]2CC[C@]2(C)C(=O)CC[C@@H]12`, the IC50 in data set [10] stood at 1650 nM.

As for `C[C@]12CC[C@H]3[C@@H](Cc4noc5c4[C@]3(C)CC[C@@H]5O)[C@@H]1CC[C@@H]2O`, the “inhibition (INH)” value in [6] is listed as 50%. The compound further displayed an IC50 in data set [7] of 120000 nM.

In [10], `C[C@]12CCC(=O)C(Sc3ccccc3)=C1CC[C@@H]1[C@@H]2CC[C@]2(C)C(=O)CC[C@@H]12` showed an IC50 of 190 nM.

As to `C[C@]12CCCC=C1C(=O)C[C@@H]1[C@@H]2CC[C@]2(C)C(=O)CC[C@@H]12`, the Ki in [4] was 610 nM. In addition, 1700 nM corresponded to half-maximal inhibition in data set [5] (IC50).

Turning to `CC(=O)NC[C@]12CCC(=O)C=C1CC[C@@H]1[C@@H]2CC[C@]2(C)C(=O)CC[C@@H]12`, in [3], the INH is given as under 20%.

Take `C[C@]12CC[C@H]3[C@@H](CCC4=CC(=O)[C@H]5C[C@H](O)[C@]43C5)[C@@H]1CCC2=O`: in data set [14], the Ki was 926 nM.

On to `C[C@]12C=CC(=O)C=C1C[C@@H](Sc1cccc3ccccc13)[C@@H]1[C@@H]2CC[C@]2(C)C(=O)CC[C@@H]12`, for which the Ki in data set [13] came out at 12 nM.

`C[C@]12C=CC(=O)C=C1CC[C@@H]1[C@@H]2CC[C@]2(C)C3=NN(c4ccccc4)[C@H](c4ccccc4)[C@H]3C[C@@H]12` came in with a 50% inhibitory concentration (IC50) in [2] of 1820 nM.

For the compound `COC(=O)N[C@]12CCC(=O)C=C1CC[C@H]1[C@@H]3CCC(=O)[C@@]3(C)CC[C@@H]12`, in data set [3], the INH is given as under 20%.

As for `CN(C)c1cccc2c(S(=O)(=O)Nc3ccc(S[C@@H]4CC5=CC(=O)CC[C@]5(C)[C@H]5CC[C@]6(C)C(=O)CC[C@H]6[C@H]45)cc3)cccc12`, the Ki in data set [15] turned out to be 24.1 nM.

As to `C[C@]12C=CC(=O)C=C1C[C@@H](Sc1ccc(Br)cc1)[C@@H]1[C@@H]2CC[C@]2(C)C(=O)CC[C@@H]12`, in [13], the Ki worked out at 12 nM.

As to `CC(=O)O[C@@H]1C=C2C(=O)C[C@@H]3[C@H](CC[C@]4(C)C(=O)CC[C@@H]34)[C@@]2(C)CC1`, the Ki in [4] amounted to 5500 nM. 1700 nM corresponded to half-maximal inhibition in data set [5] (IC50).

Regarding `C[C@H]1C[C@@]2(C)C(=CC1=O)CC[C@@H]1[C@@H]2CC[C@]2(C)C(=O)CC[C@@H]12`, the Ki in data set [8] came out at 22 nM. In addition, the midpoint of inhibition in data set [9], the IC50, lay at 250 nM.

As to `C[C@]12CCC(=O)C=C1C[C@@H](Sc1ccc3ccccc3c1)[C@@H]1[C@@H]2CC[C@]2(C)C(=O)CC[C@@H]12`, in [15], the Ki stood at 24.1 nM.
